These results are taken from patent US6384173B1, “Silicone functionalized triclosan” (Siltech LLC, priority 2001, dated 2002).

Read-outs that look alike come from different tables or passages of the source.

A short description of data set [1]: Thermal Gravimetric Analysis (weight percent lost). The note with it: Perkin-Elmer TGA 7, temperature scanned from 40 to 250 degrees at 20 degree C./minute, at completion of scan. It is filed as physicochemical. How it is done:
Thermal Gravimetric Analysis
Measurements were obtained of the weight percent lost for the samples below using a Perkin-Elmer TGA 7 where the temperature was scanned from 40° to 250° at 20° C./minute. At the completion of the temperature scan for each, the following results were obtained: […]

For data set [2] the following is noted: TGA, 40 to 250 degrees at 20 degree C./minute; value marked (U.S. Pat. No. 6,197,072); cited from earlier work.

Regarding `Oc1cc(Cl)ccc1Oc1ccc(Cl)cc1Cl` [Triclosan, triclosan], in data set [1], the “% Weight Loss” value is given as 62%.

As to Triclosan Acetate, the “% Weight Loss” value in data set [2] is reported as 12 (U.S. Pat. No. 6,197,072) %.
